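Step 1: Grow cells in 96-well plates. Step 2: Expose to compound for 48 hours at 5 concentrations. Step 3: Interpolate endpoints linearly; if unreached, use highest concentration. GI50 marks 50% less growth.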 Active and inactive are the calls of the source. Rule as the data show it: active = GI50 up to about 1.1 µM and inactive = higher.
Assays:
Assay in all cases: NCI anticancer screen, dose series, 48 h
ACHN = test system: ACHN
HCT-15 = test system: HCT-15
HL-60 = test system: HL-60
IGROV-1 = test system: IGROV-1
M14 = test system: M14
MDA-MB-435 = test system: MDA-MB-435
MOLT-4 = test system: MOLT-4
NCI-H226 = test system: NCI-H226
NCI-H460 = test system: NCI-H460
OVCAR-3 = test system: OVCAR-3
RPMI-8226 = test system: RPMI-8226
RXF 393 = test system: RXF 393
SF-268 = test system: SF-268
SK-MEL-28 = test system: SK-MEL-28
SW-620 = test system: SW-620
U-251 = test system: U-251
UACC-62 = test system: UACC-62
HOP-62 = test system: HOP-62
NCI/ADR-RES = test system: NCI/ADR-RES
SK-OV-3 = test system: SK-OV-3

Row | SMILES | GI50 (ACHN) | GI50 (HCT-15) [µM] | GI50 (HL-60) | GI50 (IGROV-1) | GI50 (M14) | GI50 (MDA-MB-435) | GI50 (MOLT-4) | GI50 (NCI-H226) | GI50 (NCI-H460) | GI50 (OVCAR-3) | GI50 (RPMI-8226) | GI50 (RXF 393) | GI50 (SF-268) | GI50 (SK-MEL-28) | GI50 (SW-620) | GI50 (U-251) | GI50 (UACC-62) | GI50 (HOP-62) | GI50 (NCI/ADR-RES) | GI50 (SK-OV-3)
1 | CN(C(=O)c1ccc(Cl)cc1)C(=S)N1CCN(c2ccccc2)CC1 | > 100 µM (inactive) | 87.5 | 35.6 µM (inactive) | > 100 µM (inactive) | > 100 µM (inactive) | > 100 µM (inactive) | 58.3 µM (inactive) | 47.5 µM (inactive) | 37.8 µM (inactive) | > 100 µM (inactive) | 64.3 µM (inactive) | > 100 µM (inactive) | > 100 µM (inactive) | > 100 µM (inactive) | > 100 µM (inactive) | > 100 µM (inactive) | 92.5 µM (inactive) |  |  | 
2 | CCCCCCCC(=O)NS(=O)(=O)c1ccccc1 | > 100 µM (inactive) | > 100 | > 100 µM (inactive) | > 100 µM (inactive) | 77.1 µM (inactive) | > 100 µM (inactive) | > 100 µM (inactive) |  | > 100 µM (inactive) | > 100 µM (inactive) | > 100 µM (inactive) |  | > 100 µM (inactive) | > 100 µM (inactive) | > 100 µM (inactive) | > 100 µM (inactive) | > 100 µM (inactive) | > 100 µM (inactive) | > 100 µM (inactive) | > 100 µM (inactive)
3 | CN(C)C(=S)C(Cl)(c1ccccc1)c1ccccc1 | 90.2 µM (inactive) | 63 | 22.9 µM (inactive) | > 100 µM (inactive) | > 100 µM (inactive) | 37.1 µM (inactive) | 11.8 µM (inactive) | 53.7 µM (inactive) | > 100 µM (inactive) | 82 µM (inactive) |  |  | > 100 µM (inactive) | > 100 µM (inactive) | 34 µM (inactive) | 36.1 µM (inactive) | > 100 µM (inactive) | > 100 µM (inactive) | 89.5 µM (inactive) | > 100 µM (inactive)
4 | CCC1CCN=C(Cn2cc(C)c(=O)[nH]c2=O)N1 (centres undefined) | > 100 µM (inactive) | > 100 |  | > 100 µM (inactive) | > 100 µM (inactive) |  |  | > 100 µM (inactive) | > 100 µM (inactive) |  |  | > 100 µM (inactive) | > 100 µM (inactive) | > 100 µM (inactive) | > 100 µM (inactive) | > 100 µM (inactive) | > 100 µM (inactive) | > 100 µM (inactive) | > 100 µM (inactive) | > 100 µM (inactive)
5 | CC1(C)OP(=O)(O)C=C1Sc1ccc([N+](=O)[O-])cc1[N+](=O)[O-] | > 100 µM (inactive) | > 100 | > 100 µM (inactive) | > 100 µM (inactive) | > 100 µM (inactive) | > 100 µM (inactive) |  | > 100 µM (inactive) | > 100 µM (inactive) | > 100 µM (inactive) |  |  | > 100 µM (inactive) | > 100 µM (inactive) | > 100 µM (inactive) | > 100 µM (inactive) | > 100 µM (inactive) | > 100 µM (inactive) | > 100 µM (inactive) | > 100 µM (inactive)
6 | Nc1nc(Br)nc2ncn(C3CC(O)C(CO)O3)c12 (centres undefined) | 10.7 µM (inactive) | > 100 |  | > 100 µM (inactive) | 3.05 µM (inactive) | > 100 µM (inactive) | 0.0212 µM (active) | > 68.1 µM (inactive) | 85.1 µM (inactive) | > 100 µM (inactive) | > 90.2 µM (inactive) | > 100 µM (inactive) | > 100 µM (inactive) | > 100 µM (inactive) | > 24.8 µM (inactive) | > 53 µM (inactive) | 11.9 µM (inactive) | > 100 µM (inactive) |  | > 100 µM (inactive)
7 | COc1ccc2c(c1)C(=O)CCc1cc(OC)c(OC)c(OC)c1-2 | 0.0863 µM (active) | 0.0359 |  | 0.0553 µM (active) | 0.0347 µM (active) | 0.0204 µM (active) | 0.0564 µM (active) | 0.0258 µM (active) | 0.0413 µM (active) | 0.0409 µM (active) | 0.0631 µM (active) |  | 0.0948 µM (active) | 0.0818 µM (active) | 0.0716 µM (active) | 0.0285 µM (active) | 0.075 µM (active) | 0.0662 µM (active) | 0.0214 µM (active) | < 0.01 µM (active)
8 | CCN(CC)C(=S)SC [METHYLDIETHYL CARBAMODITHIOATE] | > 100 µM (inactive) | > 100 | > 100 µM (inactive) | > 100 µM (inactive) | > 100 µM (inactive) |  | > 100 µM (inactive) | > 100 µM (inactive) | > 100 µM (inactive) | > 100 µM (inactive) | > 100 µM (inactive) | > 100 µM (inactive) | > 100 µM (inactive) | > 100 µM (inactive) | > 100 µM (inactive) | > 100 µM (inactive) | > 100 µM (inactive) | > 100 µM (inactive) | > 100 µM (inactive) | > 100 µM (inactive)
9 | CCNc1cc2c(cc1O)CC[C@@H]1[C@@H]2CC[C@]2(C)[C@@H](O)CC[C@@H]12 | 8.83 µM (inactive) | 0.942 | 1.52 µM (inactive) | 15.5 µM (inactive) | 1.78 µM (inactive) |  | 3.13 µM (inactive) | 2.82 µM (inactive) | 0.489 µM (active) |  | 2.31 µM (inactive) | 3.53 µM (inactive) | 15.8 µM (inactive) | 4.59 µM (inactive) | 2.82 µM (inactive) | 1.61 µM (inactive) |  |  | 1.04 µM (active) | 
10 | CCOC(=O)c1c(CN2CCOCC2)n(Cc2ccccc2)c2c1cc(O)c1nc(C)c(C)nc12 | 28.6 µM (inactive) | 57 | > 100 µM (inactive) |  | > 100 µM (inactive) | > 100 µM (inactive) | 71 µM (inactive) | 45.5 µM (inactive) | 42 µM (inactive) | 52.7 µM (inactive) | 30.3 µM (inactive) |  | 21.8 µM (inactive) | > 100 µM (inactive) | > 100 µM (inactive) | 27.4 µM (inactive) | 38.7 µM (inactive) | 21.3 µM (inactive) | 35.5 µM (inactive) | 33.3 µM (inactive)
11 | C[C@@]1(CO)[C@H](O)CC[C@@]2(C)[C@H]1CC[C@H]1C[C@@H]3C[C@@]12CC[C@@]3(O)COC(=O)CN | 0.098 µM (active) |  | 0.293 µM (active) |  | 5.15 µM (inactive) | 11.6 µM (inactive) | 2.23 µM (inactive) |  |  | 58.3 µM (inactive) | 6.56 µM (inactive) |  | 9.29 µM (inactive) | 100 µM (inactive) |  | 10.6 µM (inactive) | 2.32 µM (inactive) | 14 µM (inactive) |  | 39.4 µM (inactive)
12 | O=C1OC(c2ccccc2)=N/C1=C/NC(Cc1c[nH]cn1)C(=O)O (centres undefined) | > 100 µM (inactive) | > 100 | > 100 µM (inactive) | > 100 µM (inactive) | > 100 µM (inactive) |  | > 100 µM (inactive) | > 100 µM (inactive) | > 100 µM (inactive) | > 100 µM (inactive) | > 100 µM (inactive) | > 100 µM (inactive) | > 100 µM (inactive) | > 100 µM (inactive) | > 100 µM (inactive) | > 100 µM (inactive) | > 100 µM (inactive) | > 100 µM (inactive) |  | > 100 µM (inactive)
